Results: patent US9963463B2, “Urea-substituted indanes as P38 map kinase inhibitors” (TORRENT PHARMACEUTICALS LIMITED, priority 2014, dated 2018)

Molecular target: T1, purified recombinant human p38 alpha MAPK (Homo sapiens, UniProt Q16539)
T1 construct: purchased Millipore, USA
Assay: Inhibition of p38 alpha MAPK activity, TR-FRET kinase assay
Assay type: biochemical
Settings: read-out: P38α Inhibition; for inhibition at 1 µM: Concentration 1 μM
Method: Inhibition of p38 Alpha MAPK Activity: Time-Resolved Fluorescence Resonance Energy Transfer Kinase Standard Assay (TR-FRET Assay)
Compounds of present invention at various concentrations were premixed with DMSO. The experiment was initiated by mixing 0.5%-1.0% DMSO as vehicle/compounds with purified recombinant human p38 alpha MAPK (Millipore, USA) in the wells and 15 min incubation at room temperature. Thereafter, 30 nM of Biotinylated GST-ATF2 (Activation transcription Factor2) and 100 μM of ATP were added in to the wells containing reaction mixture, followed by reincubation for 60 minutes at RT. Reaction was terminated by addition of 10 mM of EDTA and detection reagent containing anti-phosphotheronine ATF2 antibody (PerkinElmer®, USA) labeled with europium chelate and APC (Allophycocyanin) labeled streptavidin, into the reaction mixture which was further incubated for 60 minutes at room temperature. The degree of phosphorylation of the substrate (GST-ATF2) was measured using Envision multimode reader (PerkinElmer®). Percentage inhibition of p38 kinase activity was calculated by determining ratio of specific europium 665 nm energy transfer signal to reference 615 nm signal.

T1 sequence (Q16539 whole entry): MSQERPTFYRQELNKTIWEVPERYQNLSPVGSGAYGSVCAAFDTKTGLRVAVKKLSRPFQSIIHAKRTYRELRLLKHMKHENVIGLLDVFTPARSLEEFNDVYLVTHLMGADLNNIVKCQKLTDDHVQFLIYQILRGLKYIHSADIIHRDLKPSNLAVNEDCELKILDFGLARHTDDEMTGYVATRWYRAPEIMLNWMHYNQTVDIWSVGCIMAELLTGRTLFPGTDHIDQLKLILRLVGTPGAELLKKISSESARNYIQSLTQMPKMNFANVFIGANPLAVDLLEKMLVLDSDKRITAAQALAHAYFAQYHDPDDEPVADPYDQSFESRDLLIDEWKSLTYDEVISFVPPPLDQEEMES

| inhibition at 1 µM [%] | inhibition at 0.1 µM (Concentration 100 nM) [%] | SMILES |
| --- | --- | --- |
| 80 to 100 | – | Cc1ccc(-n2nc(C(C)(C)C)cc2NC(=O)Nc2ccc(OCCN3CCn4c(nnc4-c4cccc(O)c4)C3)c3c2CCC3)cc1 [Compound 36, 1-[3-tert-butyl-1-(4-methylphenyl)-1H-pyrazol-5-yl]-3-(7-{2-[3-(3-hydroxyphenyl)-5,6-dihydro[1,2,4]triazolo[4,3-a]pyrazin-7(8H)-yl]ethoxy}-2,3-dihydro-1H-inden-4-yl)urea] |
| 80 to 100 | – | CCc1ccc(-n2nc(C(C)(C)C)cc2NC(=O)Nc2ccc(OCCN3CCn4c(nnc4-c4ccccc4OC)C3)c3c2CCC3)cc1 [Compound 23, 1-[3-tert-butyl-1-(4-ethylphenyl)-1H-pyrazol-5-yl]-3-(7-{2-[3-(2-methoxyphenyl)-5,6-dihydro[1,2,4]triazolo[4,3-a]pyrazin-7(8H)-yl]ethoxy}-2,3-dihydro-1H-inden-4-yl)urea] |
| 80 to 100 | – | COc1c(NC(=O)Nc2ccc(OCCN3CCn4c(nnc4-c4cc(Cl)ccc4O)C3)c3c2CCC3)cc(C(C)(C)C)cc1NS(C)(=O)=O [Compound 48, N-(5-tert-butyl-3-{[(7-{2-[3-(5-chloro-2-hydroxyphenyl)-5,6-dihydro[1,2,4]triazolo[4,3-a]pyrazin-7(8H)-yl]ethoxy}-2,3-dihydro-1H-inden-4-yl)carbamoyl]amino}-2-methoxyphenyl)methanesulfonamide] |
| 80 to 100 | – | CC(C)(C)c1cc(NC(=O)Nc2ccc(OCCN3CCn4c(nnc4-c4ccccc4O)C3)c3c2CCC3)n(-c2ccc(O)c(Cl)c2)n1 [Compound 26, 1-[3-tert-butyl-1-(3-chloro-4-hydroxyphenyl)-1H-pyrazol-5-yl]-3-(7-{2-[3-(2-hydroxyphenyl)-5,6-dihydro[1,2,4]triazolo[4,3-a]pyrazin-7(8H)-yl]ethoxy}-2,3-dihydro-1H-inden-4-yl)urea] |
| 80 to 100 | – | CSc1ccccc1-c1nnc2n1CCN(CCOc1ccc(NC(=O)Nc3cc(C(C)(C)C)nn3-c3ccc(O)c(Cl)c3)c3c1CCC3)C2 [Compound 24, 1-[3-tert-butyl-1-(3-chloro-4-hydroxyphenyl)-1H-pyrazol-5-yl]-3-[7-(2-{3-[2-(methylsulfanyl)phenyl]-5,6-dihydro[1,2,4]triazolo[4,3-a]pyrazin-7(8H)-yl}ethoxy)-2,3-dihydro-1H-inden-4-yl]urea] |
| – | 60 to 80 | COc1c(NC(=O)Nc2ccc(OCCN3CCn4c(nnc4-c4ccc(SCCO)cc4)C3)c3c2CCC3)cc(C(C)(C)C)cc1NS(C)(=O)=O [Compound 47, N-(5-tert-butyl-3-{[(7-{2-[3-{4-[(2-hydroxyethyl)sulfanyl]phenyl}-5,6-dihydro[1,2,4]triazolo[4,3-a]pyrazin-7(8H)-yl]ethoxy}-2,3-dihydro-1H-inden-4-yl)carbamoyl]amino}-2-methoxyphenyl)methanesulfonamide] |
| 60 to 80 | – | COc1c(NC(=O)Nc2ccc(OCCN3CCn4c(nnc4-c4cccc5ccccc45)C3)c3c2CCC3)cc(C(C)(C)C)cc1NS(C)(=O)=O [Compound 74, N-(5-tert-butyl-2-methoxy-3-{[(7-{2-[3-(naphthalen-1-yl)-5,6-dihydro[1,2,4]triazolo[4,3-a]pyrazin-7(8H)-yl]ethoxy}-2,3-dihydro-1H-inden-4-yl)carbamoyl]amino}phenyl)methanesulfonamide] |
| 80 to 100 | – | Cc1ccc(-n2nc(C(C)(C)C)cc2NC(=O)Nc2ccc(OCCN3CCn4c(nnc4-c4ccc(O)c(Cl)c4)C3)c3c2CCC3)cc1 [Compound 31, 1-[3-tert-butyl-1-(4-methylphenyl)-1H-pyrazol-5-yl]-3-(7-{2-[3-(3-chloro-4-hydroxyphenyl)-5,6-dihydro[1,2,4]triazolo[4,3-a]pyrazin-7(8H)-yl]ethoxy}-2,3-dihydro-1H-inden-4-yl)urea] |

Further lines, the molecule ahead of its results:

| SMILES | inhibition at 1 µM [%] | inhibition at 0.1 µM (Concentration 100 nM) [%] |
| --- | --- | --- |
| COc1cc(-n2nc(C(C)(C)C)cc2NC(=O)Nc2ccc(OCCN3CCN(CC4CC4)C(=O)C3)c3c2CCC3)cc(OC)c1OC [Compound 70, 1-[3-tert-butyl-1-(3,4,5-trimethoxyphenyl)-1H-pyrazol-5-yl]-3-(7-{2-[4-(cyclopropylmethyl)-3-oxopiperazin-1-yl]ethoxy}-2,3-dihydro-1H-inden-4-yl)urea] | 40 to 60 | – |
| COc1ccc(-c2nnc3n2CCN(C(=O)COc2ccc(NC(=O)Nc4cc(C(C)(C)C)nn4-c4ccccc4)c4c2CCC4)C3)cc1Cl [Compound 58, 1-(3-tert-butyl-1-phenyl-1H-pyrazol-5-yl)-3-(7-{2-[3-(3-chloro-4-methoxyphenyl)-5,6-dihydro[1,2,4]triazolo[4,3-a]pyrazin-7(8H)-yl]-2-oxoethoxy}-2,3-dihydro-1H-inden-4-yl)urea] | 40 to 60 | – |
| Cc1ccc(-n2nc(C(C)(C)C)cc2NC(=O)Nc2ccc(OCC(=O)N3CCn4c(nnc4-c4ccccc4)C3)c3c2CCC3)cc1 [Compound 57, 1-[3-tert-butyl-1-(4-methylphenyl)-1H-pyrazol-5-yl]-3-{7-[2-oxo-2-(3-phenyl-5,6-dihydro[1,2,4]triazolo[4,3-a]pyrazin-7(8H)-yl)ethoxy]-2,3-dihydro-1H-inden-4-yl}urea] | 60 to 80 | – |
| CC(C)(C)c1cc(NC(=O)Nc2ccc(OCC(=O)N3CCn4c(nnc4C(F)(F)F)C3)c3c2CCC3)n(-c2ccccc2)n1 [Compound 4, 1-(3-tert-butyl-1-phenyl-1H-pyrazol-5-yl)-3-(7-{2-oxo-2-[3-(trifluoromethyl)-5,6-dihydro[1,2,4]triazolo[4,3-a]pyrazin-7(8H)-yl]ethoxy}-2,3-dihydro-1H-inden-4-yl)urea] | 60 to 80 | – |
| CSc1ccccc1-c1nnc2n1CCN(C(=O)COc1ccc(NC(=O)Nc3cc(C(C)(C)C)nn3-c3ccc(C)cc3)c3c1CCC3)C2 [Compound 10, 1-[3-tert-butyl-1-(4-methylphenyl)-1H-pyrazol-5-yl]-3-[7-(2-{3-[2-(methylsulfanyl)phenyl]-5,6-dihydro[1,2,4]triazolo[4,3-a]pyrazin-7(8H)-yl}-2-oxoethoxy)-2,3-dihydro-1H-inden-4-yl]urea] | 80 to 100 | – |
| COc1ccccc1-c1nnc2n1CCN(C(=O)COc1ccc(NC(=O)Nc3cc(C(C)(C)C)nn3-c3ccccc3)c3c1CCC3)C2 [Compound 5, 1-(3-tert-butyl-1-phenyl-1H-pyrazol-5-yl)-3-(7-{2-[3-(2-methoxyphenyl)-5,6-dihydro[1,2,4]triazolo[4,3-a]pyrazin-7(8H)-yl]-2-oxoethoxy}-2,3-dihydro-1H-inden-4-yl)urea] | 80 to 100 | – |
| Cc1ccc(-n2nc(C(C)(C)C)cc2NC(=O)Nc2ccc(OCCN3CCN(c4ccccc4)C(=O)C3)c3c2CCC3)cc1 [Compound 19, 1-[3-tert-butyl-1-(4-methylphenyl)-1H-pyrazol-5-yl]-3-{7-[2-(3-oxo-4-phenylpiperazin-1-yl)ethoxy]-2,3-dihydro-1H-inden-4-yl}urea] | 80 to 100 | – |
| CC(=O)Nc1cc2c(s1)CCN(C(=O)COc1ccc(NC(=O)Nc3cc(C(C)(C)C)nn3-c3ccc(C)cc3)c3c1CCC3)C2 [Compound 52, N-[5-({[7-({[3-tert-butyl-1-(4-methylphenyl)-1H-pyrazol-5-yl]carbamoyl}amino)-2,3-dihydro-1H-inden-4-yl]oxy}acetyl)-4,5,6,7-tetrahydrothieno[3,2-c]pyridin-2-yl] acetamide] | 60 to 80 | – |
